Measured values reported in ChEMBL document CHEMBL5291721, “A preclinical secondary pharmacology resource illuminates target-adverse drug reaction associations of marketed drugs” (Nat Commun, 2023).

Tests used:
[1] = biological target: Histamine H3 receptor (Homo sapiens, UniProt Q9Y5N1)
[2] = biological target: T1, Sodium-dependent dopamine transporter (Homo sapiens, UniProt Q01959)
[3] = biological target: Mu-type opioid receptor (Homo sapiens, UniProt P35372)
[4] = biological target: T2, Gamma-aminobutyric acid receptor subunit alpha-1 (Rattus norvegicus, UniProt P62813)
T2 sequence (P62813 whole entry): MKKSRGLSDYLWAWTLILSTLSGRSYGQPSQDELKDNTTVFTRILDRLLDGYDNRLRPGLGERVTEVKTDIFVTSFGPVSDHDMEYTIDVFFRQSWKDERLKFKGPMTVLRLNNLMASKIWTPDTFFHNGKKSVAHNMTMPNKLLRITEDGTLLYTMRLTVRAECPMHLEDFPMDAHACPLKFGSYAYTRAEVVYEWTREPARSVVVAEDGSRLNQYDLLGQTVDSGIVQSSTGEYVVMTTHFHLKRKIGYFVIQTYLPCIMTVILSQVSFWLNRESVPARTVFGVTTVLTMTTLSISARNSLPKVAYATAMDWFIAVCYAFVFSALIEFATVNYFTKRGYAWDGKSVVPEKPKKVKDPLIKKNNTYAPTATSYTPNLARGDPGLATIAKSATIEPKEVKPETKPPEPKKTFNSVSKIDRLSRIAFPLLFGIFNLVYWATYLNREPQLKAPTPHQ

[5] = biological target: T3, Cannabinoid receptor 1 (Homo sapiens, UniProt P21554); assay type: functional, cell-based
T3 sequence (P21554 whole entry): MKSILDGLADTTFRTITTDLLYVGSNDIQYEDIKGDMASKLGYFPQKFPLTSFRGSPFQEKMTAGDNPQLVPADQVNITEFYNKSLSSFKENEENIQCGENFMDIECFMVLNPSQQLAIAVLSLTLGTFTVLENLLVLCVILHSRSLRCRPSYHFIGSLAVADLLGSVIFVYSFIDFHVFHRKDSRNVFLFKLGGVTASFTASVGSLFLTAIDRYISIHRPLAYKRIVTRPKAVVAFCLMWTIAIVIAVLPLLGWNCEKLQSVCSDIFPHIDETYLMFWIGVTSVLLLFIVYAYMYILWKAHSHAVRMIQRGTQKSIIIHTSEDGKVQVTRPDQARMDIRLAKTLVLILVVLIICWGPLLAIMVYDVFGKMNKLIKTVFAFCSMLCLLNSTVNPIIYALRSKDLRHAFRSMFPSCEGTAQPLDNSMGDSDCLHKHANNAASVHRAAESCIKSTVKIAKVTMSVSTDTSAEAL

[6] = biological target: Kappa-type opioid receptor (Homo sapiens, UniProt P41145)
Kappa-type opioid receptor, sequence (P41145 whole entry): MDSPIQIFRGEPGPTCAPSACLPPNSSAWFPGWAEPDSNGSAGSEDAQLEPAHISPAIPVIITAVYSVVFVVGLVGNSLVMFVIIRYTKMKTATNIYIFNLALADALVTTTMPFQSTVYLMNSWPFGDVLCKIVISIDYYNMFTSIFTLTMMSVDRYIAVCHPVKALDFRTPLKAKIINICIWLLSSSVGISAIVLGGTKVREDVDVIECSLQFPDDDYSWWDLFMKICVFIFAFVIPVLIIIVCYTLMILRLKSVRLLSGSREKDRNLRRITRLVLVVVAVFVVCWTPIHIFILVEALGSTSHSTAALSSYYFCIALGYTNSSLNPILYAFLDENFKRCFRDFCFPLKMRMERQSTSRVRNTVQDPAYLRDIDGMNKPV

[7] = biological target: T4, 5-hydroxytryptamine receptor 1A (Homo sapiens, UniProt P08908); assay type: functional, cell-based
T4 sequence (P08908 whole entry): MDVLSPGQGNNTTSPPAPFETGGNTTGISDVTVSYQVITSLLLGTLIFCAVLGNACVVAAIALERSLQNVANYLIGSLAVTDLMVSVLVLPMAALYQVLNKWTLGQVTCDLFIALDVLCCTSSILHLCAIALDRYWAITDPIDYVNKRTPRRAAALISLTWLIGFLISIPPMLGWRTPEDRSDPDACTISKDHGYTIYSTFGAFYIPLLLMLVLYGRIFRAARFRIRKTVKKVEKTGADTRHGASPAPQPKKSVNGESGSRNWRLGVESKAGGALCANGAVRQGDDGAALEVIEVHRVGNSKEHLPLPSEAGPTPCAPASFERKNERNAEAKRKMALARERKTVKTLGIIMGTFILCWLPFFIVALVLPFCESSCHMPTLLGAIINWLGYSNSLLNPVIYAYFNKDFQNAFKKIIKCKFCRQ

[8] = biological target: T3, Cannabinoid receptor 1; assay type: functional, cell-based; remark: listed apart in the source
[9] = biological target: T4, 5-hydroxytryptamine receptor 1A; assay type: functional, cell-based; remark: listed apart in the source
[10] = biological target: T2, Gamma-aminobutyric acid receptor subunit alpha-1; assay type: functional
[11] = biological target: T5, Alpha-2C adrenergic receptor (Homo sapiens, UniProt P18825); assay type: functional
T5 sequence (P18825 whole entry): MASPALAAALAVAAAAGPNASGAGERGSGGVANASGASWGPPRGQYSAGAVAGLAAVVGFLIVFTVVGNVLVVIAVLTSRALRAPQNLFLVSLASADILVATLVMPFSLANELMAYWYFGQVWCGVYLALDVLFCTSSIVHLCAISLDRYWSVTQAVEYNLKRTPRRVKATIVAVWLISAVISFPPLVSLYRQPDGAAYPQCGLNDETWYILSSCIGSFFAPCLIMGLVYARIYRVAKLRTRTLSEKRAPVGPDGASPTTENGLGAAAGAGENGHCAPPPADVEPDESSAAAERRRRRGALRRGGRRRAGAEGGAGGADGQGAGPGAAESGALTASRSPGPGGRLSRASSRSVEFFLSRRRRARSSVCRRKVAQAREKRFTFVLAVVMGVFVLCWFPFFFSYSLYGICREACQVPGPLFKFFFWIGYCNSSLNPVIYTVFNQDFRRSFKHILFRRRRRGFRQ

[12] = biological target: T6, Alpha-2A adrenergic receptor (Homo sapiens, UniProt P08913); assay type: functional, cell-based
T6 sequence (P08913 whole entry): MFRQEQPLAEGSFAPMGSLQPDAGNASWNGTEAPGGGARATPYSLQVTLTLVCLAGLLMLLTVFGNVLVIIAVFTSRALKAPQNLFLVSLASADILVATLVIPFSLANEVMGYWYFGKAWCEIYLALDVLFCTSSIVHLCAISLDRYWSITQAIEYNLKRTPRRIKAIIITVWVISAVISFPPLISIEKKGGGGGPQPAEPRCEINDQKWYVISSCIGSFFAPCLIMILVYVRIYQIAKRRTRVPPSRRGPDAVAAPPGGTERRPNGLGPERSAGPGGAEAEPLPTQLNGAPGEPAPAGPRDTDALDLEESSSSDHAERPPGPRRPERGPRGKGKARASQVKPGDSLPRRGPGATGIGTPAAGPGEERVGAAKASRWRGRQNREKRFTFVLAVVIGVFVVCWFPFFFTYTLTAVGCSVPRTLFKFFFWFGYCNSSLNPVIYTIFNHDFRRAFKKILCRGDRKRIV

[13] = biological target: Adenosine receptor A2a (Homo sapiens, UniProt P29274)
Adenosine receptor A2a, sequence (P29274 whole entry): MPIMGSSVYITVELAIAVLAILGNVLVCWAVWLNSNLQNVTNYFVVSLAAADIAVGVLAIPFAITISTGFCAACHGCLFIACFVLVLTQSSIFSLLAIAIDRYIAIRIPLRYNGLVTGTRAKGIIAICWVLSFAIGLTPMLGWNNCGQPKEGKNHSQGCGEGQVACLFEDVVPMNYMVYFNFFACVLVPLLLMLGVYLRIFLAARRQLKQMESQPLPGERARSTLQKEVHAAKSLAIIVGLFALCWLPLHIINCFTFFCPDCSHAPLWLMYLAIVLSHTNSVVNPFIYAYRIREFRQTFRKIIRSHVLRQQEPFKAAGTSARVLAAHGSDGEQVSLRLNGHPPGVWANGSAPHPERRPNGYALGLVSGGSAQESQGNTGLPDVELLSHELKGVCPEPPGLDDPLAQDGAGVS

[14] = biological target: D(1A) dopamine receptor (Homo sapiens, UniProt P21728); assay type: functional, cell-based
D(1A) dopamine receptor, sequence (P21728 whole entry): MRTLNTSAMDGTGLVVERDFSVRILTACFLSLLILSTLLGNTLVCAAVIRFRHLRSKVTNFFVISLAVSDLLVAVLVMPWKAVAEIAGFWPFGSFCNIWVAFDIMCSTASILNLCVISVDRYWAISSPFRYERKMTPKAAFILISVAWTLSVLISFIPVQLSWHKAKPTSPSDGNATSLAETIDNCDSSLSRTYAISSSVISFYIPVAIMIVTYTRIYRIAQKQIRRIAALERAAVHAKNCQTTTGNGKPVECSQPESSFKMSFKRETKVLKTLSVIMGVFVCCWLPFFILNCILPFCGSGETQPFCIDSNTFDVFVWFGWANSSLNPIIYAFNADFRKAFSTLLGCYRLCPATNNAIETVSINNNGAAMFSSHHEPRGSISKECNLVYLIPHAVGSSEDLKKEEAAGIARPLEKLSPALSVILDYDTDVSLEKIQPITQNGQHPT

[15] = biological target: T1, Sodium-dependent dopamine transporter; remark: listed apart in the source
[16] = biological target: D(3) dopamine receptor (Homo sapiens, UniProt P35462)
D(3) dopamine receptor, sequence (P35462 whole entry): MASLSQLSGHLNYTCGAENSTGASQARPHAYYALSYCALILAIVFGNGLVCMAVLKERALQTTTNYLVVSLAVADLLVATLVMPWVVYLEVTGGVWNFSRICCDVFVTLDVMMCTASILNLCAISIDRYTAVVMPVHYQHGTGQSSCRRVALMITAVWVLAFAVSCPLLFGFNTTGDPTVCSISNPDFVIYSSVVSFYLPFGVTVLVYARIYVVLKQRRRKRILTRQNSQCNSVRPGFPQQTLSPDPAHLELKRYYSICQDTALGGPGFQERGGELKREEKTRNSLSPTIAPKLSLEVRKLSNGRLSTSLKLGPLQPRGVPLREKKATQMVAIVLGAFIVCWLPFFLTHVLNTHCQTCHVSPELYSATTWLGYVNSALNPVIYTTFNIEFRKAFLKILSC
Further: assay procedure not described here.

T1 sequence (Q01959 whole entry): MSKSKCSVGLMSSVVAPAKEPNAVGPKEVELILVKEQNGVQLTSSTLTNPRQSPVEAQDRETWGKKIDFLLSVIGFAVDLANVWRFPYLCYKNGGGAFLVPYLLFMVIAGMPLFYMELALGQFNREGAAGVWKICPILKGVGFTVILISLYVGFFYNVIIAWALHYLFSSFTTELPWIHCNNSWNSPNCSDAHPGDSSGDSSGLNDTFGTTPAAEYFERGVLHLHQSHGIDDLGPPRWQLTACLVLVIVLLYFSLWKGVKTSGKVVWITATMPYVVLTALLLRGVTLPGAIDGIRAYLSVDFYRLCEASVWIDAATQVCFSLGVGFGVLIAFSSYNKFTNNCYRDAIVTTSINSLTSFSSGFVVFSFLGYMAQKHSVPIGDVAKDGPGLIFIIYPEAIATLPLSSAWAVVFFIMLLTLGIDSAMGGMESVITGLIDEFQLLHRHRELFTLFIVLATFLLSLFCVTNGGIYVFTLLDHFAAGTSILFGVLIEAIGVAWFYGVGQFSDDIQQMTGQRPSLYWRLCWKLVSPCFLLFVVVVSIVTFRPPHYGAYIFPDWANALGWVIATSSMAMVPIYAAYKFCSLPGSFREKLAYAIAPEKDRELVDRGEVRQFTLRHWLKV
Histamine H3 receptor, sequence (Q9Y5N1 whole entry): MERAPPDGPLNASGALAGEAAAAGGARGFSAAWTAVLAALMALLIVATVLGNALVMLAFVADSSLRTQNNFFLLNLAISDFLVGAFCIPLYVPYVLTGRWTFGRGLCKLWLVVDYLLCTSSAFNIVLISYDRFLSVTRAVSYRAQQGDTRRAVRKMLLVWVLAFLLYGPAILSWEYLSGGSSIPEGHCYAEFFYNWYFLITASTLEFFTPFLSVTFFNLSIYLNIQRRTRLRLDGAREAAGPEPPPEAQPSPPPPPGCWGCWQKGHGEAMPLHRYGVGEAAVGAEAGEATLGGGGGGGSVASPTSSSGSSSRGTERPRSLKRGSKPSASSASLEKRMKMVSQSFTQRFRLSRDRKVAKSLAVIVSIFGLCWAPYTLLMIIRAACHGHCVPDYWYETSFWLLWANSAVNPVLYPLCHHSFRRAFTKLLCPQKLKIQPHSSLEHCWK
Mu-type opioid receptor, sequence (P35372 whole entry): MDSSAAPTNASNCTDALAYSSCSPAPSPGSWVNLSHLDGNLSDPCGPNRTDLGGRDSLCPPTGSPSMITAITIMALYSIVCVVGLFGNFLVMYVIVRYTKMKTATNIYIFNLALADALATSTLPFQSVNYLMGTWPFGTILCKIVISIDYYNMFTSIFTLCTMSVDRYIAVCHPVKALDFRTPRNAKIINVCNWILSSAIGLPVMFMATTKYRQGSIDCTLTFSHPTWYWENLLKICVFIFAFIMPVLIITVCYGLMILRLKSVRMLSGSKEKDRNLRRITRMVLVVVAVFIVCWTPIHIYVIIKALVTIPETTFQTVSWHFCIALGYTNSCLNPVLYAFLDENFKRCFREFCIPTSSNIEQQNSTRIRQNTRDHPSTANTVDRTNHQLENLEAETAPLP

| SMILES | AC50 [1] [µM] | AC50 [2] [µM] | AC50 [3] [µM] | also measured |
| --- | --- | --- | --- | --- |
| O=C1c2c(O)c(=O)ccn2N([C@@H]2c3ccccc3SCc3c2ccc(F)c3F)[C@@H]2COCCN12 [BALOXAVIR] | > 30 | > 30 | 22 |  |
| C(=N\NC1=NCCN1)/c1c2ccccc2c(/C=N/NC2=NCCN2)c2ccccc12 [BISANTRENE] | > 30 | 9.57 | 5.36 |  |
| CCO/N=C(\C(=O)N[C@@H]1C(=O)N2C(C(=O)[O-])=C(Sc3nc(-c4cc[n+](C)cc4)cs3)CS[C@H]12)c1nsc(N)n1 [CEFTAROLINE] | > 30 | > 30 | > 30 |  |
| Cc1cc(O)cc(C)c1Cl [CHLOROXYLENOL] | > 30 | > 30 | > 30 |  |
| CC(=O)OCC(=O)[C@@]1(O)CC[C@H]2[C@@H]3CCC4=CC(=O)CC[C@]4(C)[C@H]3C(=O)C[C@@]21C [CORTISONE ACETATE] |  |  |  | AC50 [4]: > 30 µM; AC50 [5]: > 30 µM; AC50 [6]: > 30 µM; AC50 [7]: > 30 µM; AC50 [8]: > 30 µM; AC50 [9]: > 30 µM; AC50 [10]: > 30 µM; AC50 [11]: > 30 µM |
| C[N+](C)(C)CCCCCCCCCC[N+](C)(C)C [DECAMETHONIUM] | > 30 | > 30 | > 30 |  |
| O=C1c2ccccc2C(=O)C1C(=O)C(c1ccccc1)c1ccccc1 [DIPHENADIONE] | > 30 | > 30 | > 30 |  |
| CCC(=O)O[C@H]1[C@H](O[C@@H]2[C@@H](C)[C@H](O[C@H]3C[C@@](C)(OC)[C@@H](O)[C@H](C)O3)[C@@H](C)C(=O)O[C@H](CC)[C@@](C)(O)[C@H](O)[C@@H](C)C(=O)[C@H](C)C[C@@]2(C)O)O[C@H](C)C[C@@H]1N(C)C [ERYTHROMYCIN PROPIONATE] | > 30 | 29.1 | 16.2 |  |
| CCOC(=O)c1ccc(O)cc1 [ETHYLPARABEN] | > 30 | > 30 | > 30 |  |
| O=C1[C@H](CC[C@H](O)c2ccc(F)cc2)[C@@H](c2ccc(O)cc2)N1c1ccc(F)cc1 [EZETIMIBE] | > 30 | 19.5 | 13.9 |  |
| O=C(COc1ccc(Cl)cc1)N1CCN(Cc2ccc3c(c2)OCO3)CC1 [FIPEXIDE] | > 30 | 12.9 | 18.4 |  |
| Cc1c(-c2ccccc2)oc2c(C(=O)OCCN3CCCCC3)cccc2c1=O [FLAVOXATE] | 24.6 | > 30 | 3.05 |  |
| CCC(=O)c1c(O)cc(O)cc1O [FLOPROPIONE] | > 30 | > 30 | > 30 |  |
| CC1(C)O[C@@H]2C[C@H]3[C@@H]4C[C@H](F)C5=CC(=O)CC[C@]5(C)[C@H]4[C@@H](O)C[C@]3(C)[C@]2(C(=O)CO)O1 [FLURANDRENOLIDE] | > 30 | > 30 | > 30 |  |
| C#C[C@]1(O)CC[C@H]2[C@@H]3CCC4=CC(=O)CC[C@@H]4[C@H]3CC[C@@]21CC [LEVONORGESTREL] | > 30 | > 30 | > 30 |  |
| OC[C@@H](O)[C@@H](O)[C@H](O)[C@H](O)CO [MANNITOL] | > 30 | > 30 | > 30 |  |
| CN1CCCC(CN2c3ccccc3Sc3ccccc32)C1 (stereo not given) [MEPAZINE] | 22.3 | 27.7 | 6.07 |  |
| Sc1ncnc2nc[nH]c12 [MERCAPTOPURINE ANHYDROUS] | > 30 | > 30 | > 30 |  |
| C[N+]1(C)[C@@H]2C[C@@H](OC(=O)[C@H](CO)c3ccccc3)C[C@H]1[C@@H]1O[C@@H]12 [METHSCOPOLAMINE] | > 30 | > 30 | > 30 |  |
| CC(C)(C(=O)c1cccnc1)c1cccnc1 [METYRAPONE] |  |  |  | AC50 [12]: > 10 µM; AC50 [4]: > 10 µM; AC50 [6]: > 10 µM; AC50 [13]: > 10 µM; AC50 [7]: > 10 µM; AC50 [14]: > 10 µM; AC50 [15]: > 10 µM; AC50 [9]: > 10 µM; AC50 [10]: > 10 µM; AC50 [11]: > 10 µM; AC50 [16]: > 30 µM |
| O=C1CC[C@@]2(O)[C@H]3Cc4ccc(O)c5c4[C@@]2(CCN3CC2CC2)[C@H]1O5 [NALTREXONE] | > 30 | > 30 |  |  |
